Source: ChEMBL document CHEMBL1149610, “Bicyclo[2.2.2]octyl esters of dialkylamino acids as antiprotozoals” (Bioorg Med Chem, 2007)

What was measured:
[1] = system: Trypanosoma brucei rhodesiense; assay: Antitrypanosomal activity against Trypanosoma brucei rhodesiense after 72 hrs by microplate assay; assay type: functional, organism-based
[2] = system: Plasmodium falciparum; assay: Antiplasmodial activity against chloroquine, pyrimethamine-resistant Plasmodium falciparum K1 after 48 hrs; assay type: functional, organism-based; settings: K1, 48 h
[3] = Selectivity index, ratio of IC50 for rat L6 cells to IC50 for Plasmodium falciparum K1; assay type: functional
[4] = Selectivity index, ratio of IC50 for rat L6 cells to IC50 for Trypanosoma brucei rhodesiense; assay type: functional
[5] = system: L6; assay: Cytotoxicity against rat L6 cells after 72 hrs by microplate assay; assay type: cell-based; settings: L6, 72 h

| SMILES | IC50 [1] | IC50 [2] | Ratio IC50 [3] | Ratio IC50 [4] | IC50 [5] |
| --- | --- | --- | --- | --- | --- |
| CN(C)C12CC(OC(=O)/C=C/c3ccccc3)C(C(c3ccccc3)C1)C(c1ccccc1)C2 (racemic) | 0.83 µM | 0.69 µM | 5.54 | 4.6 | 3.82 µM |
| CC(C)(C)C(=O)OC1CC2(N3CCCC3)CC(c3ccccc3)C1C(c1ccccc1)C2 (racemic) | 1.38 µM | 0.99 µM | 7.7 | 5.52 | 7.62 µM |
| CCN(CC)CC(=O)OC1CC2(N(C)C)CC(c3ccccc3)C1C(c1ccccc1)C2 (racemic) | – | – | 11.08 | 49.41 | – |
| O=C(OC1CC2(N3CCCCC3)CC(c3ccccc3)C1C(c1ccccc1)C2)c1ccc2c(c1)OCO2 (racemic) | 2.51 µM | 0.55 µM | 23.15 | 5.07 | 12.7 µM |
| CN(C)C12CC(O)C(C(c3ccccc3)C1)C(c1ccccc1)C2 (racemic) | – | – | <8.53 | 44.92 | – |
| CN(C)C12CC(OC(=O)c3ccc4c(c3)OCO4)C(C(c3ccccc3)C1)C(c1ccccc1)C2 (racemic) | 0.98 µM | 0.34 µM | 15.65 | 5.43 | 5.32 µM |
| C[C@@H]1CC[C@H]2[C@@H](C)C(=O)O[C@@H]3O[C@@]4(C)CC[C@@H]1[C@]32OO4 [ARTEMISININ] | – | 0.0064 µM | – | – | – |
| O=C(CN1CCCC1)OC1CC2(N3CCCCC3)CC(c3ccccc3)C1C(c1ccccc1)C2 (racemic) | – | – | 34.85 | 51.19 | – |
| O=C(/C=C/c1ccccc1)OC1CC2(N3CCCC3)CC(c3ccccc3)C1C(c1ccccc1)C2 (racemic) | 1.04 µM | 0.63 µM | 5.56 | 3.37 | 3.5 µM |
| CC(=O)OC1CC2(N(C)C)CC(c3ccccc3)C1C(c1ccccc1)C2 (racemic) | 4.75 µM | > 12.5 µM | – | – | – |
| O=C(CN1CCCC1)OC1CC2(N3CCCC3)CC(c3ccccc3)C1C(c1ccccc1)C2 (racemic) | 0.23 µM | 0.7 µM | 61.34 | 186.7 | 42.9 µM |
| CCN(CC)CC(=O)OC1CC2(N3CCCCC3)CC(c3ccccc3)C1C(c1ccccc1)C2 (racemic) | – | – | 95.68 | 42.71 | – |
| O=C(OC1CC2(N3CCCC3)CC(c3ccccc3)C1C(c1ccccc1)C2)c1ccc2c(c1)OCO2 (racemic) | 0.82 µM | 0.39 µM | 14.49 | 6.89 | 5.65 µM |
| CN(C)C12CC(OC(=O)C(C)(C)C)C(C(c3ccccc3)C1)C(c1ccccc1)C2 (racemic) | 0.62 µM | 0.42 µM | 12.05 | 8.16 | 5.06 µM |
| O=C(CN1CCCCC1)OC1CC2(N3CCCC3)CC(c3ccccc3)C1C(c1ccccc1)C2 (racemic) | – | – | 38.43 | 38.43 | – |
| CC(C)(C)C(=O)OC1CC2(N3CCCCC3)CC(c3ccccc3)C1C(c1ccccc1)C2 (racemic) | 2.69 µM | 7.93 µM | 1.51 | 4.46 | 12 µM |
| CN(C)C12CC(OC(=O)CN3CCCCC3)C(C(c3ccccc3)C1)C(c1ccccc1)C2 (racemic) | – | – | 56.27 | 14.7 | – |
| O=C(CN1CCCCC1)OC1CC2(N3CCCCC3)CC(c3ccccc3)C1C(c1ccccc1)C2 (racemic) | – | – | 335.5 | 69.41 | – |
| CC(=O)OC1CC2(N3CCCC3)CC(c3ccccc3)C1C(c1ccccc1)C2 (racemic) | 4.93 µM | > 11.7 µM | – | – | – |
| CCN(CC)CC(=O)OC1CC2(N3CCCC3)CC(c3ccccc3)C1C(c1ccccc1)C2 (racemic) | – | – | 245 | 68.06 | – |
| CC(=O)OC1CC2(N3CCCCC3)CC(c3ccccc3)C1C(c1ccccc1)C2 (racemic) | 9.89 µM | > 11 µM | – | – | – |
| O=C(/C=C/c1ccccc1)OC1CC2(N3CCCCC3)CC(c3ccccc3)C1C(c1ccccc1)C2 (racemic) | 1.41 µM | 0.45 µM | 23.27 | 7.43 | 10.5 µM |
| CN(C)C12CC(OC(=O)CN3CCCC3)C(C(c3ccccc3)C1)C(c1ccccc1)C2 (racemic) | – | – | 46 | 155.5 | – |
